“Also recorded” adds a separate entry of the source.
What was measured:
Kv4.3/KCHIP2 = biological target: T1, Kv4.3/KCHIP2 (Homo sapiens, UniProt Q9UK17); test: Two-electrode voltage clamp in Xenopus laevis oocytes, Kv4.3/KCHIP2; format: cell-based; conditions: BBP 10 μM, TEVC, n = 5
T1 sequence (Q9UK17 1-655): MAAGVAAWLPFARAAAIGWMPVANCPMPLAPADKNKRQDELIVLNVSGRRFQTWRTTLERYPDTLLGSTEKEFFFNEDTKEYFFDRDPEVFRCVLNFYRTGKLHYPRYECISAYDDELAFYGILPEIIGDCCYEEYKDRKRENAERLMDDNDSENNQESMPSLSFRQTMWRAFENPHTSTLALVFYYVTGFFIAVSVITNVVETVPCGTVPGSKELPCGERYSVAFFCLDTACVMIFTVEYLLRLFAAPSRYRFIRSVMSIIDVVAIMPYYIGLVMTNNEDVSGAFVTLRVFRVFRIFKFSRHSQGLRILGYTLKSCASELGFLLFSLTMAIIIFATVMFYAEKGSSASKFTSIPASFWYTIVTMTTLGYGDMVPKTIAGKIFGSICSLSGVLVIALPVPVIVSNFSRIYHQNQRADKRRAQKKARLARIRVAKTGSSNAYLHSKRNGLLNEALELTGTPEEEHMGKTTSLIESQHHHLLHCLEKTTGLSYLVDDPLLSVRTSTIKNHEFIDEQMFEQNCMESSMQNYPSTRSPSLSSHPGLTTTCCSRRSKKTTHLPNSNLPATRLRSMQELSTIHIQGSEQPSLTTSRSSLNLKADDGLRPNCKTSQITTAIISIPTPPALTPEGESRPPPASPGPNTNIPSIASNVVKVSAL
T1 sequence (Q9NS61 1-270 partner): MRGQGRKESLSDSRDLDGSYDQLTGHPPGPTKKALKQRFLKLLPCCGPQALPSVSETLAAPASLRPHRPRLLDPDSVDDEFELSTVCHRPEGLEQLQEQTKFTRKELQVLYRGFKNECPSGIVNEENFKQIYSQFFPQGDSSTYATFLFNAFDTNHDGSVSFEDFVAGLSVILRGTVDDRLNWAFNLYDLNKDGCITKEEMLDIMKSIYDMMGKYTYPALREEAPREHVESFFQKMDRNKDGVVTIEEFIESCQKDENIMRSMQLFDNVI
Protocol: cRNA was prepared from linearized plasmids using the mMESSAGE mMACHINE T7 kit (Ambion, USA) and quantified by UV spectroscopy (NanoDrop, Thermo Scientific, Wilmington, USA). Xenopus laevis oocytes were acquired from EcoCyte Bioscience (Castrop-Rauxel, Germany). Oocytes were injected with 50 nL cRNA and currents were recorded after 2 days of incubation at 19°C. Currents were recorded at a sampling rate of 10 kHz using a TEVC amplifier (Dagan CA-1B; IL, USA), and borosilicate glass recording electrodes (Module Ohm, Herlev, Denmark), made with a DMZ Universal Puller (Zeitz Instruments, Martinsried, Germany) with a resistance of 0.5–1 MΩ when filled with 2 M KCl. Oocytes were superfused with Kulori (pH 7.4) solution containing NaCl 90 mM, KCl 4 mM, MgCl2 1 mM, CaCl2 1 mM, 4-(2-hydroxyethyl)-1-piperazineethanesulfonic acid 5 mM, and currents were elicited with the voltage protocols previously indicated (Skarsfeldt et al., [2016]), from a holding potential of −80 mV. […]
To assess the effect of BBP on other calcium-activated potassium channels (hBK, hSK3 WT, rSK3 H491N, and hIK), each individual current was first normalized to its cell size using membrane's capacitance (pA/pF) before statistical analysis. […] Statistical significance between saline and the effect of both BBP and the corresponding reference compound was determined for each channel using one-way ANOVA analysis. […]

hIK = biological target: T2, hIK (Homo sapiens, UniProt O15554); test: Manual whole cell patch clamp, HEK293 transiently transfected with hIK; format: cell-based; conditions: BBP 1 μM, n = 6
T2 construct: expressed in transfected cells; host or cells: HEK293 (transient, co-transfected with eGFP)
Protocol: HEK293 cells were transiently co-transfected with the plasmid of interest (hBK, hSK1, hSK2, hSK3 WT, rSK3 H491N, or hIK) and eGFP using standard Lipofectamine™ 2000 (Thermo Fisher Scientific, Waltham, Massachussets, USA) transfection protocols. After transfection, cells were incubated overnight before the experiments.
Manual patch clamp experiments were performed at room temperature in the whole cell configuration with a HEKA EPC9 amplifier and the Patchmaster software (HEKA Elektronik, Ludwigshafen, Germany). All currents were elicited every 2 s using an incremental 200 ms voltage-ramp protocol starting at −80 mV and finishing at +80 mV from a holding potential of 0 mV. Borosilicate glass pipettes were pulled with a horizontal puller (DMZ Universal Puller, Zeitz Instruments, Martinsried, Germany) with resistances 2.5–3 MΩ. Currents were measured using the same solutions as the ones used for automated patch clamp, with symmetrical potassium concentrations and a free intracellular calcium concentration of 400 nM. […] On the day of the experiment, cells were rinsed with magnesium-free PBS and detached with Detachin™ (Amsbio, Abingdon, United Kingdom) before being plated on 0.5 mm diameter coverslips. Only fluorescent cells were considered for patch clamp experiments.
To do so, we transiently transfected HEK293 WT cells with a plasmid containing one of the human SK channel subtypes, the big conductance calcium and voltage-activated potassium (BK) channel or the intermediate conductance calcium-activated potassium (IK) channel. […] Finally, a positive control was used to inhibit the remaining current and quantify the total effect of BBP. […]

c1cc(-c2nc3ccccc3[nH]2)nc(-c2nc3ccccc3[nH]2)c1 [BBP, 2,6-Bis(2-benzimidazolyl)pyridine]
Effect on Kv4.3/KCHIP2 current (Kv4.3/KCHIP2): did not have any effect; also recorded: did not significantly affect
Effect on hIK current (hIK): did not have any effect; also recorded: remained unaffected; also recorded: not affected

Source: article PMC6287599, “2,6-Bis(2-Benzimidazolyl)Pyridine (BBP) Is a Potent and Selective Inhibitor of Small Conductance Calcium-Activated Potassium (SK) Channels” (Frontiers in Pharmacology, 2018)
